Data as given in patent publication US7534766B2, “Glucuronide metabolites and epimers thereof of tigecycline” (Wyeth, priority 2004, dated 2009).

Legend:
[1] = LC/MS detection of tigecycline metabolites in CD-1 mouse serum and urine after intravenous tigecycline; settings: mouse, in vivo, iv, 5 mg/kg
Protocol: Fifteen male CD-1 mice, with an average weight of 31.3 g at the time of dosing, were used. Animals were given food and water ad libitum. Mice in the 0.5 and 2 hour blood collection groups were housed in standard cages, while those in the 4 hour blood collection group were housed in metabolism cages for the collection of urine. Mice were dosed by the Bioresources Department at Wyeth Research, Collegeville, Pa.
For mice and rabbits, the intravenous dosing solutions was prepared by dissolving 50 mg of tigecycline in 5.0 mL of 0.9% sterile saline solution to make a working stock solution. The working stock solution was diluted with 0.9% sterile saline solution to 0.5 mg/mL for mice and 4 mg/mL for rabbits. The mouse dose (5 mg/kg, 10 mL/kg) was administered as a bolus injection via the tail vein. The rabbit dose (4 mg/kg, 1 mL/kg) was administered as a bolus injection via the marginal vein of the ear.
For mice (n=5/time point), blood (approximately 0.7 mL) was collected by cardiac puncture at 0.5, 2 and 4 hours following administration of tigecycline. For rabbits, blood (approximately 7 mL) was collected via the ear vein at 0.5, 2 and 6 hours following the tigecycline dose. Serum was separated following clot formation at room temperature and centrifugation for 15 minutes at 4° C. and 3000 rpm. The serum was transferred to a fresh tube and was stored at approximately −70° C. until analysis as described below under “Serum Sample Preparation for LC/MS Analysis. In addition, urine was collected from mice in the 4 hour blood collection group and was stored at approximately −70° C. until analysis, as described below under “Urine Sample Preparation for LC/MS Analysis.”
Mouse urine was thawed and an aliquot (1 mL) transferred to a fresh tube. The sample was centrifuged at 14,000 rpm and room temperature for 10 minutes using a Model 5415C Eppendorf centrifuge (Brinkmann Instruments, Westbury, N.Y.) to remove any particulates. The sample was then transferred to a fresh tube and was analyzed by LC/MS, as described below under “Liquid Chromatography/Mass Spectrometry Analysis.”.
Mouse and rabbit serum samples were pooled at each collection time and analyzed for tigecycline, its epimer, tigecycline glucuronide (M7 and its epimer M6), 9-aminominocycline (M3) and N-acetyl-9-aminominocycline (M9 and its epimer M8). Aliquots of serum (500 μL) were transferred to new tubes and deuterated tigecycline (30 ng/mL final concentration) was added as an internal standard (quantitative analysis only). EDTA (40 μL of 0.5 M EDTA) was added to each sample and the samples vortex mixed. Acetonitrile (500 μL) was added to each sample, samples were vortex mixed and denatured protein separated by centrifugation at 14,000 rpm and room temperature for 10 minutes using a Model 5415C Eppendorf centrifuge (Brinkmann Instruments). The supernatant was transferred to a fresh tube and the solvent evaporated under a stream of nitrogen using a Turbovap Model LV evaporator (Caliper Life Sciences, Hopkinton, Mass.).
The HPLC system used for mass spectrometric analysis was a Waters Alliance Model 2695 HPLC system (Waters Corp., Milford, Mass.). It was equipped with a built-in autosampler and a Model 996 diode array UV detector. The UV detector was set to monitor 210-400 nm. Separations for metabolite characterization were accomplished on a Phenomenex Luna C18(2) column (150×2.1 mm, 5 μm) (Phenomenex, Torrance, Calif.) equipped with a Keystone Uniguard C18 guard column (10×2.1 mm) (Thermo Electron Corp., Bellefonte, Pa.). The column temperature was 25° C. The flow rate was 0.2 mL/min. Mobile phase A was 10 mM ammonium acetate in water and mobile phase B was acetonitrile.

[2] = Tigecycline metabolites identified in CD-1 mouse serum and urine and rabbit serum samples (LC/MS); format: in vivo; settings: in vivo, iv
Protocol: The column temperature was 25° C. The flow rate was 0.2 mL/min. […] Gradient 1 was used for metabolite identification (qualitative analysis).
LC/MS analysis was conducted on extracts of serum and from CD-1 mice and rabbits, and on urine from CD-1 mice. The mass spectral data for tigecycline and its metabolites are discussed below.

[3] = following multiple administrations of tigecycline; cited from earlier work

observed in mouse urine by LC/MS [1]: No M9 was observed
Species and matrix in which identified [2]: R-S
SMILES: CC(=O)Nc1cc(N(C)C)c2c(c1O)C(=O)C1=C(O)C3(O)C(=O)C(C(N)=O)=C(O)C(N(C)C)C3CC1C2 (stereo not drawn) [Metabolite M9, N-acetyl-9-aminominocycline]
concentrations previously reported in human serum [3]: 3 to 15 ng/mL
